Reference: patent US8486965B2, “Pyrrolo[2,3-b]pyridine derivative and use thereof for treatment of cancer” (Takeda Pharmaceutical Company Limited, priority 2009, dated 2013)

system: Hedgehog signal transduction system (Smo); test: Gli reporter luciferase assay in NIH-3T3/Gli reporter cells stimulated with mouse Shh-N end fragment; type: cell-based; settings: NIH3T3; 1 μM compound; NIH-3T3/Gli reporter cells with mouse Shh-N end fragment culture supernatant, 48 hr; luciferase activity, control without compound as 100; read-out: inhibition rate (%) at 1 μM
Excerpt: Inhibition of the Hedgehog signal transduction system can be measured, for example, by quantifying a decrease in the expression level of a reporter gene connected to the downstream of the Gli binding site based on the fluorescence intensity according to the following Experimental Example 1. Alternatively, it can be measured by quantifying the expression of Gli-1 mRNA in a cell extract by quantitative PCR method and the like. A compound that inhibits Hedgehog signal targets Smo, which can be confirmed, for example, by binding fluorescence-labeled Cyclopamine and a test compound to cells expressing Smo, measuring the fluorescence level of the cell, and comparing the value with that without addition of a test compound to find a decrease.
Gli reporter plasmid was constructed by inserting 8×Gli-binding site and chicken δ-crystalline promoter into the upstream of luc+ of pGL3 (Promega).
prepared in reference to the base sequence described in GenBank accession No.; X02187, and chicken genome DNA (Clontech) as a template. PCR reaction was performed using Pfu Turbo (Stratagene) and following the attached protocol. The obtained 108 bp fragment was digested with restriction enzymes BglII and HindIII, and inserted into BglII-HindIII site of pGL3 to give plasmid pGL3/δ-cry promoter.
As 8× Gli-binding site, a sequence containing eight 9-bp Gli bound consensus sequences (GACCACCCA) described in Yoon et al., J. Biol. Chem., vol. 273, pages 3496-3501 (1998) was prepared from synthetic DNA. That is, two synthetic DNAs,
were heat treated at 95° C. for 2 minutes, and incubated at 37° C. for 1 hr for annealing to give a double stranded DNA of the above-mentioned two synthetic DNAs. The obtained double stranded DNA was digested with restriction enzymes BglII and KpnI, and the obtained DNA fragment was inserted into BglII-KpnI site of pGL3/δ-cry promoter to construct plasmid pGL3/δ-cry promoter, 8× Gli binding site, i.e., Gli reporter plasmid. 2. Construction of Plasmid for Expression of Mouse Shh-N End Fragment
As a material for construction of plasmid for Shh-N end fragment expression, mouse Shh cDNA was cloned at first.
The mouse Shh cDNA was cloned by Nested PCR method using mouse 11-day fetus cDNA (Clontech) as a template. The primer sequence was prepared in reference to the base sequence described in GenBank accession No.; NM_009170.
Using the mouse Shh cDNA sequence obtained as mentioned above as a template, a partial cDNA sequence wherein stop codon (TGA) was added to 3′-terminal of cDNA sequence encoding 1st to 198th amino acid sequence of mouse Shh was obtained by PCR method. As the primer set,
In the manner mentioned above, a plasmid for mouse Shh-N end fragment expression, pcDNA3.1/mShh-N, was constructed.
HEK293 cells were grown in D-MEM medium (Invitrogen) containing 10% fetal bovine serum in a 10 cm dish and pcDNA3.1/mShh-N was introduced into the cells using FuGENE6 (Roche Applied Science). Thereafter, the HEK293 cells were cultured in a carbon dioxide gas incubator at 37° C. for 24 hours, and the medium was exchanged with D-MEM medium (Invitrogen) containing 2% fetal bovine serum. After culturing for 48 hr, culture supernatant containing recombinant type mouse Shh-N end fragment was obtained by filtration using a filter ([…]).
Using D-MEM (Invitrogen) containing 10% fetal bovine serum, expression plasmid pcDNA3:1 and Gli reporter plasmid (pGL3/δ-cry promoter, 8× Gli binding site) produced by the method of Experimental Example 1 were introduced into NIH-3T3 cells grown in a 10 cm dish by the use of FuGENE6 (Roche Applied Science).
After culture for 24 hr, the cells were recovered, suspended in D-MEM medium containing 10% fetal bovine serum and supplemented with Geneticin (Life Technologies Oriental, Inc.) to a final concentration of 500 μg/ml, diluted to 10^4 cells/ml, plated on a 96 well plate, and cultured in a carbon dioxide gas incubator at 37° C. to give Geneticin resistant transformed cell line. […]

Compound | inhibition at 1 µM
Cc1cc2c(nc1-c1ccccc1)c(OCC(F)(F)F)c(C(=O)NC1CCN(C(=O)CO)CC1)n2C [Example 136, N-[1-(hydroxyacetyl)piperidin-4-yl]-1,6-dimethyl-5-phenyl-3-(2,2,2-trifluoroethoxy)-1H-pyrrolo[3,2-b]pyridine-2-carboxamide] | 95%
CCc1cc2c(cc1NC(=O)c1ccsc1)c(OC(C)C)c(C(=O)NC1CCN(C(=O)CO)CC1)n2C [Example 148, 6-ethyl-N-[1-(hydroxyacetyl)piperidin-4-yl]-1-methyl-3-(1-methylethoxy)-5-[(thiophen-3-ylcarbonyl)amino]-1H-indole-2-carboxamide] | 98%
Cc1nc2c(cc1NC(=O)c1ccc(F)cc1)c(OCC(F)(F)F)c(C(=O)NC1CCN(C(=O)CO)CC1)n2C [Example 48, 5-{[(4-fluorophenyl)carbonyl]amino}-N-[1-(hydroxyacetyl)piperidin-4-yl]-1,6-dimethyl-3-(2,2,2-trifluoroethoxy)-1H-pyrrolo[2,3-b]pyridine-2-carboxamide] | 97%
CCc1cc2c(nc1NC(=O)c1ccccc1)c(OCC(F)(F)F)c(C(=O)NC1CCN(C(=O)CO)CC1)n2C [Example 127, 6-ethyl-N-[1-(hydroxyacetyl)piperidin-4-yl]-1-methyl-5-[(phenylcarbonyl)amino]-3-(2,2,2-trifluoroethoxy)-1H-pyrrolo[3,2-b]pyridine-2-carboxamide] | 96%
CCc1nc2c(cc1NC(=O)c1ccccc1)c(OCC(F)(F)F)c(C(=O)NC1CCS(=O)(=O)CC1)n2C [Example 40, N-(1,1-dioxidotetrahydro-2H-thiopyran-4-yl)-6-ethyl-1-methyl-5-[(phenylcarbonyl)amino]-3-(2,2,2-trifluoroethoxy)-1H-pyrrolo[2,3-b]pyridine-2-carboxamide] | 97%
CCc1cc2sc(C(=O)NC3CCN(C(=O)CO)CC3)c(OC(C)C)c2cc1NC(=O)c1ccsc1 [Example 152, 6-ethyl-N-[1-(hydroxyacetyl)piperidin-4-yl]-3-(1-methylethoxy)-5-[(thiophen-3-ylcarbonyl)amino]-1-benzothiophene-2-carboxamide] | 97%
CCc1nc2c(cc1NC(=O)c1ccoc1)c(OCC(F)(F)F)c(C(=O)NC1CCN(C(=O)CO)CC1)n2C [Example 54, 6-ethyl-5-[(furan-3-ylcarbonyl)amino]-N-[1-(hydroxyacetyl)piperidin-4-yl]-1-methyl-3-(2,2,2-trifluoroethoxy)-1H-pyrrolo[2,3-b]pyridine-2-carboxamide] | 99%
Cc1nc2c(cc1NC(=O)c1ccccc1)c(OCC(F)(F)F)c(C(=O)NC1CCN(C(=O)CO)CC1)n2C [Example 47, N-[1-(hydroxyacetyl)piperidin-4-yl]-1,6-dimethyl-5-[(phenylcarbonyl)amino]-3-(2,2,2-trifluoroethoxy)-1H-pyrrolo[2,3-b]pyridine-2-carboxamide] | 97%
CCc1nc2c(cc1NC(=O)c1cccc(F)c1)c(OCC(F)(F)F)c(C(=O)NC1CCN(C(=O)CO)CC1)n2C [Example 30, 6-ethyl-5-{[(3-fluorophenyl)carbonyl]amino}-N-[1-(hydroxyacetyl)piperidin-4-yl]-1-methyl-3-(2,2,2-trifluoroethoxy)-1H-pyrrolo[2,3-b]pyridine-2-carboxamide] | 97%
CCc1nc2c(cc1CC(=O)c1ccccc1)c(OCC(F)(F)F)c(C(=O)NC1CCN(C(=O)CO)CC1)n2C [Example 9, 6-ethyl-N-[1-(hydroxyacetyl)piperidin-4-yl]-1-methyl-5-(2-oxo-2-phenylethyl)-3-(2,2,2-trifluoroethoxy)-1H-pyrrolo[2,3-b]pyridine-2-carboxamide] | 98%
CCc1cc2sc(C(=O)NC3CCN(C(=O)CO)CC3)c(OC(C)C)c2cc1NC(=O)c1cccs1 [Example 153, 6-ethyl-N-[1-(hydroxyacetyl)piperidin-4-yl]-3-(1-methylethoxy)-5-[(thiophen-2-ylcarbonyl)amino]-1-benzothiophene-2-carboxamide] | 97%
CCc1cc2c(nc1-c1ccccc1)c(OCC(F)(F)F)c(C(=O)NC1CCN(C(=O)CO)CC1)n2C [Example 128, 6-ethyl-N-[1-(hydroxyacetyl)piperidin-4-yl]-1-methyl-5-phenyl-3-(2,2,2-trifluoroethoxy)-1H-pyrrolo[3,2-b]pyridine-2-carboxamide] | 94%
CCc1nc2c(cc1NC(=O)c1ccccc1F)c(OCC(F)(F)F)c(C(=O)NC1CCN(C(=O)CO)CC1)n2C [Example 22, 6-ethyl-5-{[(2-fluorophenyl)carbonyl]amino}-N-[1-(hydroxyacetyl)piperidin-4-yl]-1-methyl-3-(2,2,2-trifluoroethoxy)-1H-pyrrolo[2,3-b]pyridine-2-carboxamide] | 93%
CCc1nc2c(cc1NC(=O)c1ccsc1)c(OC(C)C)c(C(=O)NC1CCN(C(=O)CO)CC1)n2C [Example 61, 6-ethyl-N-[1-(hydroxyacetyl)piperidin-4-yl]-1-methyl-3-(1-methylethoxy)-5-[(thiophen-3-ylcarbonyl)amino]-1H-pyrrolo[2,3-b]pyridine-2-carboxamide] | 98%
CCc1nc2c(nc1NC(=O)c1ccc(F)cc1)c(OC(C)C)c(C(=O)NC1CCN(C(=O)CO)CC1)n2C [Example 162, 3-ethyl-2-{[(4-fluorophenyl)carbonyl]amino}-N-[1-(hydroxyacetyl)piperidin-4-yl]-5-methyl-7-(1-methylethoxy)-5H-pyrrolo[2,3-b]pyrazine-6-carboxamide] | 100%
CCc1nc2c(cc1NC(=O)c1cc(C)nn1C)c(OCC(F)(F)F)c(C(=O)NC1CCN(C(=O)CO)CC1)n2C [Example 57, 5-{[(1,3-dimethyl-1H-pyrazol-5-yl)carbonyl]amino}-6-ethyl-N-[1-(hydroxyacetyl)piperidin-4-yl]-1-methyl-3-(2,2,2-trifluoroethoxy)-1H-pyrrolo[2,3-b]pyridine-2-carboxamide] | 99%
CCc1nc2c(cc1NC(=O)c1cscn1)c(OCC(F)(F)F)c(C(=O)NC1CCN(C(=O)CO)CC1)n2C [Example 56, 6-ethyl-N-[1-(hydroxyacetyl)piperidin-4-yl]-1-methyl-5-[(1,3-thiazol-4-ylcarbonyl)amino]-3-(2,2,2-trifluoroethoxy)-1H-pyrrolo[2,3-b]pyridine-2-carboxamide] | 97%
CCc1cc2c(cc1NC(=O)c1ccc(Cl)cc1)c(OC(C)C)c(C(=O)NC1CCN(C(=O)CO)CC1)n2C [Example 169, 5-{[(4-chlorophenyl)carbonyl]amino}-6-ethyl-N-[1-(hydroxyacetyl)piperidin-4-yl]-1-methyl-3-(1-methylethoxy)-1H-indole-2-carboxamide] | 99%
CCc1nc2c(cc1NC(=O)c1cncs1)c(OCC(F)(F)F)c(C(=O)NC1CCN(C(=O)CO)CC1)n2C [Example 53, 6-ethyl-N-[1-(hydroxyacetyl)piperidin-4-yl]-1-methyl-5-[(1,3-thiazol-5-ylcarbonyl)amino]-3-(2,2,2-trifluoroethoxy)-1H-pyrrolo[2,3-b]pyridine-2-carboxamide] | 95%
CCc1cc2c(nc1-c1ccccc1)c(OC(C)C)c(C(=O)NC1CCN(C(=O)CO)CC1)n2C [Example 131, 6-ethyl-N-[1-(hydroxyacetyl)piperidin-4-yl]-1-methyl-3-(1-methylethoxy)-5-phenyl-1H-pyrrolo[3,2-b]pyridine-2-carboxamide] | 82%
